A short description of series [1]: Calculated rate constant for acid-catalyzed solvolysis. Format: physicochemical.
The next series has as its system DNA. As to conditions: cited from earlier work.
The test system of series [2] is w794 DNA. In words: DNA alkylation (thermal strand cleavage, PAGE) within w794 DNA. The class given is biochemical, SV40.
Series [3] has as its system w794 DNA. In words: Rate of DNA alkylation at the single w794 high affinity site: pH and buffer dependence. The settings on record: for change in rate of DNA alkylation over 2 pH units: 10 mM phosphate buffer, pH 6.0-8.1; for pH dependence of the rate of DNA alkylation: pH 7-8. Format: biochemical, SV40. As for the experimental part: Rate of DNA Alkylation: pH Dependence. […] Because this was conducted using w794 DNA additionally containing >7000 base-pairs and multiple binding sites within the unlabeled portion of the DNA, the comparisons were conducted at concentrations that provide saturated binding and restrict the kinetic analysis to the pseudo-first order rate constant for alkylation. […] The relative lack of dependence on the acid concentration (pH) especially in the most relevant pH range of 7-8 in conjunction with the observations made in the accompanying paper has led us to propose an alternative source of reaction catalysis.
Relative Rates of DNA Alkylation for (+)-1 at pH 6-8. Eppendorf tubes containing 5' end-labeled w794 DNA (9 μL) in phosphate buffer (10 mM) at pH 6.0, 6.6, 7.1, 7.6, and 8.1 were prepared. The solutions at each pH were treated with (+)-duocarmycin SA (1μL, 10^-6 M in DMSO), mixed and incubated at 25° C. for 0.5, 1.0, 1.5, 2.0 and 3.0 h. […] The reactions were stopped at each time interval by EtOH precipitation of the DNA. The alkylated DNA was resuspended in TE buffer (10 μL, pH 7.5) and heated at 100° C. for 30 min follwed by PAGE and autoradiography as detailed above.
Since these observations sharply contrast the proposed important role of acid catalysis for activation of the agents toward DNA alkylation which has served as the basis for one prominent proposal for the origin of the DNA alkylation selectivity, we have examined in detail the pH dependence of the rate of DNA alkylation for duocarmycin SA (1) and CCBI-TMI over a physiologically relevant range. […] Between pH 6-7, the slope of the plot of pH versus log κobs was 0.2-0.3, far lower than that of 1.0 required of a first-order dependence on acid concentration.

The nature of series [4]: Chemical/aqueous solvolysis reactivity followed by UV. Format: physicochemical. The text has this:
The solvolysis reactivities of N--BOC-CNA (78) and CNA (79) were followed spectrophotometrically by UV at both pH 3 (50% CH3 OH-buffer, buffer=4:1:20 v/v/v 0.1 M citric acid, 0.2 M Na2 HPO4, H2 O) and pH 7 (50% CH3 OH--H2 O). […] Particularly informative are comparisons of the benzo series of agents that differ only in the C-ring size (i.e., 76-79). Solvolysis reactivity smoothly increases through the series CBI<CBQ<CNA with both the N--BOC derivatives and the free NH derivatives.
Aqueous Solvolysis of N--BOC-CNA (78) and CNA (79). Samples of 78 (150 μg) and 79 (150 [g) were dissolved in CH3 OH (1.5 mL) and the resulting solutions were mixed with aqueous buffer (pH 3, 1.5 mL, 4:1:20 (v:v:v) 0.1 M citric acid, 0.2 M Na2 HPO4, and deionized H2 O respectively). Similarly, a solution of 78 (150 μg) in CH3 OH (1.5 mL) was mixed with deionized H2 O (pH 7, 1.5 mL). The UV spectra of the solutions were measured immediately after mixing with the appropriate aqueous solution. The blank and the solvolysis reaction solutions were stoppered, protected from light, and allowed to stand at 25° C. The total reaction times reflect those required to observe no further change in absorbance. For the solvolysis of 78 at pH 3, the UV spectrum was taken every 30 s for 10 min and then every 3 min for the next 40 min. The decrease of the absorbance at 319 nm was monitored. […] For the solvolysis of 78 at pH 7, the UV spectrum was monitored every 5 min for 19 h. […] For the solvolysis of 79 at pH 3, the UV spectrum was monitored every 2 min for the first 110 min and then every 10 min for the next 4 h. The decrease in the absorbance at 345 nm was recorded.

Series [5] deals with duplex DNA (w794, w836, c988, c820, c1346). Format: biochemical, SV40.
Series [6] can be described thus: In vitro cytotoxic activity.
Series [7] has as its system w794 DNA. In words: Relative rates of DNA alkylation for (+)-1, 53 and 54 at the w794 5'-AATTA site. Format: biochemical, SV40. The method, then: Modifications in the Trimethoxyindole Subunit: Role of the Methoxy Substituents. DNA alkylation by the natural enantiomers of 53-56 were compared with that of 1 in w794 DNA.
Relative Rates of DNA Alkylation for (+)-1, 53, and 54. Following the procedure detailed above, Eppendorf tubes containing 5' end-labeled w794 DNA (9 μL) in TE buffer (pH 7.5) were treated with (+)-duocarmnycin SA, 53, or 54 (1 μL, 10^-5 M in DMSO). […] The solutions were mixed and incubated at 25° C. for 1, 3, 6, 12, 24, 48, and 72 h, respectively. Subsequent isolation of the alkylated DNA by EtOH precipitation, resuspension in TE buffer (10 μL, pH 7.5), thermolysis (30 min, 100° C.), concurrent PAGE, and autoradiography were conducted as detailed above. The relative rate for the alkylation at the 5'-AATTA site was derived from the slopes of the plots of percent integrated optical density (IOD) of the high affinity alkylation site cleavage bands versus time.

For series [8], the system named is w794 DNA. The settings on record: pH 7.5, earlier studies; cited from earlier work.
The subject of the next series is w836 DNA. In words: DNA alkylation sites and relative rates within the six-base A sequence (5'-AAAAAA) of w836 DNA. Format: biochemical, SV40. The settings on record: 5'-AAAAAA.
[9] abbreviates: 10^-6 M, 25° C., pH 7.6, 10 mM phosphate.
Where [10] appears, read: 10^-5 M, 25° C., 1-72 h, 5'-d(AATTA).

Bounds are passed on as bounds.

Turning to `COc1c(O)c2c(c3cc(C(=O)N4CCc5c4c(O)c(OC)c4[nH]c(C(=O)N6C[C@H]7C[C@@]78C6=CC(=O)c6[nH]cc(C)c68)cc54)[nH]c13)CCN2C(N)=O` [(+)-CC-1065, reference compound], the “calculated first-order rate constant for acid-catalyzed solvolysis, pH 7.6” value in series [1] was 2.5×10^-11 s^-1. In addition, the “adenine N3 adduct formation (addition to least substituted cyclopropane carbon)” value (“adenine N3 adduct formation” for short) with DNA was above 85%. In the series with w794 DNA [2], the “high affinity alkylation site in w794 DNA” value is reported as 5'-AATTA. Besides, the “pseudo first-order rate constant for DNA alkylation, pH 7.6 (unit not given)” value in the series with w794 DNA [3] (setting [9]) was 3.36×10^-4. Also, the “solvolysis reactivity/stability in words or rank order” value in series [4] is “remarkable stability of 1-3 even at pH 5”. The “AT-rich adenine N3 alkylation selectivity (size of site)” value in [5] is on record as 5 base-pair.
As to `COC(=O)C1(C)NC2=C(C1=O)[C@@]13C[C@@H]1CN(C(=O)c1cc4cc(OC)c(OC)c(OC)c4[nH]1)C3=CC2=O` (stereo partly drawn) [duocarmycin A], in the series with DNA, the “adenine N3 adduct formation” value is 86-92%. For the same molecule, the “solvolysis reactivity/stability in words or rank order” value in series [4] was “remarkable stability of 1-3 even at pH 5”.
With `COC(=O)c1cc2c([nH]1)C(=O)C=C1N(C(=O)c3cc4cc(OC)c(OC)c(OC)c4[nH]3)CC3CC123` (stereo not drawn) [duocarmycin SA], the “cytotoxic / antitumor activity in words” value in series [6] is reported as “biologically the most potent”. In the series on w794 DNA [7] (10^-4 -10^-6 M), the “concentration dependence of the rate of DNA alkylation” value is given as “independent of agent concentration”. Moreover, the “relative rate of DNA alkylation κrel versus 53” value in the series on w794 DNA [7] (setting [10]) is 18-33. Further, the “relative rate of DNA alkylation κrel, 1 versus 54” value with w794 DNA [7] (setting [10]) is reported as 1.3-2.3. The “relative rate of DNA alkylation at w794 high affinity site” value in the series on w794 DNA [8] is 0.9 ×. Also, the “calculated rate constant for acid-catalyzed solvolysis, pH 7” value in series [1] (pH 7) is 1.08×10^-10 s^-1. The “calculated first-order rate constant for acid-catalyzed solvolysis, pH 7.6” value in series [1] was 2.7×10^-11 s^-1. Further, the “adenine N3 adduct formation” value with DNA is reported as 95-100%. In addition, in the series with w794 DNA [3] (10^-4 -10^-6 M), the “concentration dependence of the rate of DNA alkylation (pH study)” value is “independent of agent concentration”. Moreover, the “change in rate of DNA alkylation over 2 pH units” value in the series on w794 DNA [3] (10^-6 M, 25° C.) is recorded as below 2 ×; in the series on w794 DNA [3] (10^-6 M, 25° C., listed as (+)-duocarmycin SA (1)), below 3 ×. Besides, in the series with w794 DNA [3] (10^-6 M, 25° C., pH 7.1, 5'-AATTA), the “pseudo-first order rate constant for DNA alkylation, pH 7.1” value is 1.69×10^-4 s^-1. Further, the “pseudo first-order rate constant for DNA alkylation, pH 7.6” value in the series with w794 DNA [3] (setting [9]) was 1.58×10^-4 s^-1. For the same molecule, the “slope of plot of pH versus log κobs” value with w794 DNA [3] (pH 6-7) is 0.2-0.3. Further, the “pH dependence of the rate of DNA alkylation” value was “essentially no dependence” in the series on w794 DNA [3], “the rate dependence on pH essentially disappeared” in the series with w794 DNA [3] (listed as (+)-duocarmycin SA) and “the rate dependence on pH essentially disappeared” in the series with w794 DNA [3] (listed as (+)-duocarmycin SA (1)). Further, in the series on w794 DNA [3] (pH 7 / 7.1), the “t1/2 of DNA alkylation” value came out at 1.1 h. Besides, in the series with w794 DNA [3] (pH 7.6), the “t1/2 of DNA alkylation, pH 7.6” value is 1.2 h. Further, the “AT-rich binding site covered in w836 DNA” value with w836 DNA stood at 3.5 base-pair. The “alkylated adenines within six-base A-rich sequence of w836 DNA” value in the series on w836 DNA is “each of the four 3' adenines”. Also, in [5], the “AT-rich adenine N3 alkylation selectivity (size of site)” value came out at 3.5 base-pair.
